Assay [1] concerns the target T1, Cholecystokinin receptor type A (Rattus norvegicus, UniProt P30551).
T1 sequence (P30551 whole entry): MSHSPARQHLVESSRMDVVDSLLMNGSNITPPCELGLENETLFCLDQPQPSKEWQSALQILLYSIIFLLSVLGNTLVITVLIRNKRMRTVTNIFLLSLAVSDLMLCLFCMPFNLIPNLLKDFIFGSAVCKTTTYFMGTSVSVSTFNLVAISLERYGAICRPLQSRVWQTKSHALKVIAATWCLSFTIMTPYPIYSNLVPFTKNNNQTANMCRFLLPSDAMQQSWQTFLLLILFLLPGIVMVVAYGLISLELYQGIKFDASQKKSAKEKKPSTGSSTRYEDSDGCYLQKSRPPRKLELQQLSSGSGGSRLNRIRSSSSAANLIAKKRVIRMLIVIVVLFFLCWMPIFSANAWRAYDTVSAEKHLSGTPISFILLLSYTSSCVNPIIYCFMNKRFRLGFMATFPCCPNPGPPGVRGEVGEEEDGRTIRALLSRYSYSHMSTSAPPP
Put plainly: Concentration required for binding affinity to neuropeptide (CCK-A) receptor in rat pancrea.

Assay [2] concerns the target Neuromedin-B receptor (Homo sapiens, UniProt P28336). Briefly: Binding affinity for human neuromedin B(hNMB) receptor expressed in CHO cells. In kind it is cell-based.

Sequence of Neuromedin-B receptor (P28336 whole entry): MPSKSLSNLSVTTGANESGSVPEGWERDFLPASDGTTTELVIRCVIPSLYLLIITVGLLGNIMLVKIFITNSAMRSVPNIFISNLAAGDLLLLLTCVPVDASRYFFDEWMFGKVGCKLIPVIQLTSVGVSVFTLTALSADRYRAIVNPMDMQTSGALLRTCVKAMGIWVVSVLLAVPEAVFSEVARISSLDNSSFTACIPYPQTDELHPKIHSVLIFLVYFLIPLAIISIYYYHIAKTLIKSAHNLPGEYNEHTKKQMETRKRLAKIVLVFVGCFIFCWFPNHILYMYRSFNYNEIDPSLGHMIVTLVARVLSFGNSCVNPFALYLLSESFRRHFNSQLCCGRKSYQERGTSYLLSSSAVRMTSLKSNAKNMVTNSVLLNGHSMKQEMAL

Turning to `O=C(N[C@@H](Cc1c[nH]c2ccccc12)C(=O)NCCc1c[nH]c2ccccc12)OCc1ccccc1`, in assay [1], the IC50 (commonly the concentration at which inhibition is half-maximal) was determined as 450 nM. The affinity in assay [2] corresponds to a Ki of 2800 nM.
